Columns and labels:
MOLM14 cells = assay: Proliferation (spheroid) assay, MOLM14; assay type: cell-based; conditions: Homo sapiens, MOLM-14, 192 h, 8 days; read-out: spheroid assay_MOLM14 IC50
Experimental: (§1) The anti-proliferative effect of menin/MLL protein/protein interaction inhibitor test compounds was assessed in human leukemia cell lines. The cell line MOLM14 harbors a MLL translocation and expresses the MLL fusion protein MLL-AF9, respectively, as well as the wildtype protein from the second allele. OCI-AML3 cells that carry the NPM1c gene mutation were also tested. […] KO-52 was used as a control cell line containing two MLL (KMT2A) wildtype alleles in order to exclude compounds that display general cytotoxic effects.
(§2) MOLM14 cells were cultured in RPMI-1640 (Sigma Aldrich) supplemented with 10% heat-inactivated fetal bovine serum (HyClone), 2 mM L-glutamine (Sigma Aldrich) and 50 μg/ml gentamycin (Gibco). KO-52 and OCI-AML3 cell lines were propagated in alpha-MEM (Sigma Aldrich) supplemented with 20% heat-inactivated fetal bovine serum (HyClone), 2 mM L-glutamine (Sigma Aldrich) and 50 μg/ml gentamycin (Gibco).
In order to assess the anti-proliferative effects, 200 MOLM14 cells, […] or 300 KO-52 cells were seeded in 200 μl media per well in 96-well round bottom, ultra-low attachment plates (Costar, catalogue number 7007). Cell seeding numbers were chosen based on growth curves to ensure linear growth throughout the experiment. Test compounds were added at different concentrations and the DMSO content was normalized to 0.3%. Cells were incubated for 8 days at 37° C. and 5% CO2. Spheroid like growth was measured in real-time by live-cell imaging (IncuCyteZOOM, Essenbio, 4× objective) acquiring images at day 8. Confluence (%) as a measure of spheroid size was determined using an integrated analysis tool.
In order to determine the effect of the test compounds over time, the confluence in each well as a measure of spheroid size, was calculated. Confluence of the highest dose of a reference compound was used as baseline for the LC (Low control) and the confluence of DMSO treated cells was used as 0% cytotoxicity (High Control, HC).
Absolute IC50 values were calculated as percent change in confluence as follows: • LC=Low Control: cells treated with e.g. 1 μM of the cytotoxic agent staurosporin, or e.g. cells treated with a high concentration of an alternative reference compound • HC═High Control: Mean confluence (%) (DMSO treated cells) • % Effect=100−(100*(Sample-LC)/(HC-LC))
GraphPad Prism (version 7.00) was used to calculate the ICso. Dose-response equation was used for the plot of % Effect vs Log10 compound concentration with a variable slope and fixing the maximum to 100% and the minimum to 0%.

OCI-AML3 cells = assay: Proliferation (spheroid) assay, OCI-AML3; assay type: cell-based; conditions: Homo sapiens, OCI-AML-3, 192 h; 8 days; read-out: spheroid assay_OCI-AML3 IC50
Experimental: as §1, §2
(§3) In order to assess the anti-proliferative effects, 200 MOLM14 cells, 200° C. […] Spheroid like growth was measured in real-time by live-cell imaging (IncuCyteZOOM, Essenbio, 4× objective) acquiring images at day 8. Confluence (%) as a measure of spheroid size was determined using an integrated analysis tool.
(§4) In order to determine the effect of the test compounds over time, the confluence in each well as a measure of spheroid size, was calculated. […]

KO-52 cells = assay: Proliferation (spheroid) assay, KO-52 control cell line; assay type: cell-based; conditions: Homo sapiens, 192 h; 8 days; read-out: spheroid assay_KO-52 IC50
Experimental: as §1, §2, §3, §4

MEIS1 mRNA = MEIS1 mRNA expression assay (Quantigene Singleplex) in MOLM14 cells; assay type: cell-based; conditions: Homo sapiens, MOLM-14, 48 hours
Experimental: 2b) MEIS1 mRNA Expression Assay
MEIS1 mRNA expression upon treatment of compound was examined by Quantigene Singleplex assay (Thermo Fisher Scientific). This technology allows for direct quantification of mRNA targets using probes hybridizing to defined target sequences of interest and the signal is detected using a Multimode plate reader Envision (PerkinElmer). The MOLM14 cell line was used for this experiment. Cells were plated in 96-well plates at 3,750 cells/well in the presence of increasing concentrations of compounds. After incubation of 48 hours with compounds, cells were lysed in lysis buffer and incubated for 45 minutes at 55° C. Cell lysates were mixed with human MEIS1 specific capture probe or human RPL28 (Ribosomal Protein L28) specific probe as a normalization control, as well as blocking probes. Cell lysates were then transferred to the custom assay hybridization plate (Thermo Fisher Scientific) and incubated for 18 to 22 hours at 55° C. Subsequently, plates were washed to remove unbound materials followed by sequential addition of preamplifiers, amplifiers, and label probe. Signals (=gene counts) were measured with a Multimode plate reader Envision. IC50s were calculated by dose-response modelling using appropriate software. For all non-housekeeper genes response equal counts corrected for background and relative expression. For each sample, each test gene signal (background subtracted) was divided by the normalization gene signal (RPL28: background subtracted). Fold changes were calculated by dividing the normalized values for the treated samples by the normalized values for the DMSO treated sample. Fold changes of each target gene were used for the calculation of IC50s.

[1] = Dynamic vapor sorption (DVS) moisture sorption analysis; assay type: physicochemical
Experimental: Dynamic Vapor Sorption (DVS)
The moisture sorption analysis (DVS) was performed using a ProUmid GmbH & Co.
KG Vsorp Enhanced dynamic vapor sorption apparatus. The moisture profile was evaluated by monitoring vapor adsorption/desorption over the range of 0 to 90% relative humidity at 25° C. The sample weight equilibrium criteria were set at 0.01% change in 45 min with minimum and maximum time of acclimation at 50 min and 120 min, respectively. The moisture profile consisted of 2 cycles of vapor adsorption/desorption.

[2] = common ambient RH of 40% to 75%

CC(=O)N1CCC(CN2CC[C@@H](Cc3cn(-c4ccc(F)cc4C(=O)N(C)C(C)C)c4cncc(C)c34)C2)CC1 [Compound 51a]
IC50 (MOLM14 cells): 13 nM | IC50 (OCI-AML3 cells): 70 nM | IC50 (KO-52 cells): 1200 nM | IC50 (MEIS1 mRNA): 11 nM | total moisture mass at equilibrium [1, 2]: 8.5-9.5% | water content at equilibrium [1, 2]: around 3 equivalents of water | hygroscopicity (DVS change in mass plot) ([1]; crystalline HCl salt Form, 0 to 90% relative humidity, 25° C.): hygroscopic | solid-state form after DVS test (XRPD) ([1]; fraction obtained after the DVS test compared to starting material): No indication of a solid-state form change | moisture adsorbed and desorbed, on average ([1]; humidity range of 20-90% RH, 25° C.): up to 2.5 % by mass
